Results taken from patent US20060199856A1, “Novel compounds as anti-inflammatory, immunomodulatory and anti-proliferatory agents” (4 SC AG, priority 2001, published 2006).
Read-outs that look alike come from different tables or passages of the source.

Key:
Type in all cases: biochemical
[1] = target: T1, recombinant human DHODH (Homo sapiens, UniProt Q02127); test: Inhibition assay of DHODH activity (human enzyme)
T1 construct: provided by Prof; M. Löffler, Marburg, Germany (gift, not purchased)
T1 sequence (Q02127 whole entry): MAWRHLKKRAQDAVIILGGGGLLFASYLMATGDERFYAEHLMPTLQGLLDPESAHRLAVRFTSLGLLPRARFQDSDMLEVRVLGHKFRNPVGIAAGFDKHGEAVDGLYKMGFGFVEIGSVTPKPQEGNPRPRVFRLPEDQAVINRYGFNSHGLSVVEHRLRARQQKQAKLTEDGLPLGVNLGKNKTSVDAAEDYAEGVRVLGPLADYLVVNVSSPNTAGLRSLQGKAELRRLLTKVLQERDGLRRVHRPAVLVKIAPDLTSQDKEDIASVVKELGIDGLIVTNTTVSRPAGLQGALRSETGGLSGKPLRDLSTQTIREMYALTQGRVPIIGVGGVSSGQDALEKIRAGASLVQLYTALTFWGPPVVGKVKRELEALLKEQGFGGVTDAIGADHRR
Experimental: (§1) The standard assay mixture contained 50 μM decyclo ubichinone, 100 μM dihydroorotate, 60 μM 2,6-dichloroindophenol, as well as 20 mU DHODH. The volume activity of the recombinant enzyme used was 30 U/ml. Measurements were conducted in 50 mM TrisHCl (150 mM KCl, 0,1% Triton X-100, pH. 8,0) at 30° C. in a final volume of 1 ml. The components were mixed, and the reaction was started by adding dihydroorotate. The course of reaction was followed by spectrophotometrically measuring the decrease in absorption at 600 nm for 2 min.
(§2) Inhibitory studies were conducted in a standard assay with additional variable amounts of inhibitor.
(§3) These investigations were carried out with recombinant human as well as with recombinant murine DHODH provided by Prof. M. Löffler, Marburg, Germany [M. Löffler, Chem. Biol. Interact.

[2] = target: T2, recombinant murine DHODH (Mus musculus, UniProt O35435); test: Inhibition assay of DHODH activity (murine enzyme)
T2 construct: provided by Prof; M. Löffler, Marburg, Germany (gift, not purchased)
T2 sequence (O35435 whole entry): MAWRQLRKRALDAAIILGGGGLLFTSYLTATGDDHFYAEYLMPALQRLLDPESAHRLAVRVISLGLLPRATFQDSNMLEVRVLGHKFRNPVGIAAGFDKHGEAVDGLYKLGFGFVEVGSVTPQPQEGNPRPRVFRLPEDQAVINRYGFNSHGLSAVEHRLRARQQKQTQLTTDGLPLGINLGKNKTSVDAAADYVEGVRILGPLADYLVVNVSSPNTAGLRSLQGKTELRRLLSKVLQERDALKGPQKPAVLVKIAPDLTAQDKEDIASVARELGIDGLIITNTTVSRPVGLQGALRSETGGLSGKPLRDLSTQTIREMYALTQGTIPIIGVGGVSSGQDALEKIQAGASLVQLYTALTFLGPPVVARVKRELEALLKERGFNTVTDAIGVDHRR
Experimental: as §1, §2, §3

[3] = target: DHODH (Rattus norvegicus, UniProt Q63707); test: Inhibition assay of DHODH activity (rat enzyme, head printed 'rate')
DHODH, sequence (Q63707 whole entry): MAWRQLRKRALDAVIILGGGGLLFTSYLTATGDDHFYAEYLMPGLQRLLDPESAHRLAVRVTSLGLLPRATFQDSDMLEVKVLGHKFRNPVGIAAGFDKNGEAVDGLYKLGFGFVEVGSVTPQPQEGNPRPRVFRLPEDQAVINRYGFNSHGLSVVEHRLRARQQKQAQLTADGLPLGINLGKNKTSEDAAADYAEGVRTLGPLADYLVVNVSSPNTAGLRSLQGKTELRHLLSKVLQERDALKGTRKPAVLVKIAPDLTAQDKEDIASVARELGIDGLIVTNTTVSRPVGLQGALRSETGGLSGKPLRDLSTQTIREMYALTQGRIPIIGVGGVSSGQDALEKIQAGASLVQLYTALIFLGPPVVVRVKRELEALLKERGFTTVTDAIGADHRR
Experimental: as §1, §2

[4] = recombinant human DHODH, numeric values, read-out: human IC50-Value
[5] = recombinant human DHODH, class symbols (in nM), read-out: human IC50-Value
[6] = class symbols (in nM), read-out: rate IC50-Value

## O=C(O)C1=C(C(=O)Nc2ccc(OCc3ccccc3)cc2)CCC1 [Compound 01, 2-(4-Benzyloxy-phenylcarbamoyl)-cyclopent-l-enecarboxylic acid]
[1]; [4]
  IC50: 350 nM
[2]; numeric values or words
  IC50: 8200 nM

## O=C(O)C1=C(C(=O)Nc2cc(C(F)(F)F)cc(C(F)(F)F)c2)CCC1 [Compound 03]
[1]; [4]
  IC50: 1000 nM

## COc1ccc(Nc2ccc(NC(=O)C3=C(C(=O)O)CCC3)cc2)cc1 [Compound 04]
[1]; [4]
  IC50: 1000 nM
[2]; numeric values or words
  murine IC50-Value: weakly active

## O=C(O)C1=C(C(=O)Nc2ccc3c(c2)S(=O)(=O)c2cc(NC(=O)C4=C(C(=O)O)CCC4)ccc2C3)CCC1 [Compound 05]
[1]; [4]
  IC50: 1100 nM
[2]; numeric values or words
  murine IC50-Value: weakley active

## O=C(O)C1=C(C(=O)Nc2c(F)c(F)cc(F)c2F)CCC1 [Compound 06]
[1]; [4]
  IC50: 1300 nM

## O=C(O)C1=C(C(=O)Nc2c(F)c(F)c(C(F)(F)F)c(F)c2F)CCC1 [Compound 07]
[1]; [4]
  IC50: 1600 nM

## O=C(O)C1=C(C(=O)Nc2ccc(C(F)(F)F)cc2)CCC1 [Compound 08]
[1]; [4]
  IC50: 1600 nM
[2]; numeric values or words
  IC50: 930 nM

## O=C(O)C1=C(C(=O)Nc2cccc(C(F)(F)F)c2)CCC1 [Compound 09]
[1]; [4]
  IC50: 6800 nM
[2]; numeric values or words
  IC50: 55000 nM

## O=C(O)C1=C(C(=O)Nc2ccc(F)c(F)c2F)CCC1 [Compound 10]
[1]; [4]
  IC50: 6800 nM

## Nc1ccc(Oc2ccc(NC(=O)C3=C(C(=O)O)CCCC3)cc2)cc1 [Compound 11]
[1]; [4]
  IC50: 7000 nM

## O=C(O)C1=C(C(=O)Nc2ccc(-c3ccccc3F)cc2)CCC1 [Compound 13]
[1]; [5]
  IC50: < 800 nM
[3]; [6]
  IC50: > 1500 nM

## O=C(O)C1=C(C(=O)Nc2ccc(-c3ccccc3Cl)cc2)CCC1 [Compound 14]
[1]; [5]
  IC50: < 800 nM
[3]; [6]
  IC50: > 1500 nM

## COc1ccccc1-c1ccc(NC(=O)C2=C(C(=O)O)CCC2)cc1 [Compound 15]
[1]; [5]
  IC50: < 800 nM

## O=C(O)C1=C(C(=O)Nc2ccc(OCc3c(F)cccc3F)cc2)CCC1 [Compound 16]
[1]; [5]
  IC50: < 800 nM

## CCOc1ccccc1-c1ccc(NC(=O)C2=C(C(=O)O)CCC2)c(F)c1 [Compound 17]
[1]; [5]
  IC50: < 800 nM

## N#Cc1cccc(-c2ccc(NC(=O)C3=C(C(=O)O)CCC3)cc2Cl)c1 [Compound 18]
[1]; [5]
  IC50: < 800 nM

## COc1ccc(-c2ccc(NC(=O)C3=C(C(=O)O)CCC3)cc2Cl)cc1 [Compound 19]
[1]; [5]
  IC50: < 800 nM
[3]; [6]
  IC50: < 800 nM

## CS(=O)(=O)c1ccc(-c2ccc(NC(=O)C3=C(C(=O)O)CCC3)cc2Cl)cc1 [Compound 20]
[1]; [5]
  IC50: 800 to 1500 nM

## N#Cc1ccc(-c2ccc(NC(=O)C3=C(C(=O)O)CCC3)cc2Cl)cc1 [Compound 21]
[1]; [5]
  IC50: 800 to 1500 nM

## COc1ccc(-c2ccc(NC(=O)C3=C(C(=O)O)CCC3)cc2Cl)cn1 [Compound 22]
[1]; [5]
  IC50: < 800 nM

## COc1ccc(-c2ccc(NC(=O)C3=C(C(=O)O)CCC3)cc2C)cc1 [Compound 23]
[1]; [5]
  IC50: < 800 nM

## O=C(O)C1=C(C(=O)Nc2cc(Br)c(OCc3cc(F)ccc3F)c(Br)c2)CCC1 [Compound 24]
[1]; [5]
  IC50: < 800 nM
[3]; [6]
  IC50: > 1500 nM

## COc1cccc(-c2ccc(NC(=O)C3=C(C(=O)O)CCC3)c(F)c2)c1 [Compound 26]
[3]
  IC50: > 1500 nM

## O=C(O)C1=C(C(=O)Nc2ccc(-c3cccc(F)c3)cc2F)CCC1 [Compound 27]
[1]; [5]
  IC50: < 800 nM

## O=C(O)C1=C(C(=O)Nc2ccc(-c3cccnc3)c(Cl)c2)CCC1 [Compound 28]
[1]; [5]
  IC50: 800 to 1500 nM

## O=C(O)C1=C(C(=O)Nc2cc(Br)c(OCc3ccccc3)c(Br)c2)CSC1 [Compound 29]
[1]
  IC50: < 800 nM
[3]
  IC50: 800 to 1500 nM

## Cc1cc(-c2cc(F)c(NC(=O)C3=C(C(=O)O)CCC3)c(F)c2)ccc1F [Compound 30]
[1]; [5]
  IC50: < 800 nM

## COc1ccccc1-c1ccc(NC(=O)C2=C(C(=O)O)CCC2)c([N+](=O)[O-])c1 [Compound 32]
[1]; [5]
  IC50: < 800 nM

## COc1cc(-c2ccccc2)ccc1NC(=O)C1=C(C(=O)O)CCC1 [Compound 33]
[1]; [5]
  IC50: < 800 nM

## COc1cc(-c2ccccc2Cl)ccc1NC(=O)C1=C(C(=O)O)CCC1 [Compound 34]
[1]; [5]
  IC50: < 800 nM

## COc1cc(-c2cccc(OC(F)(F)F)c2)ccc1NC(=O)C1=C(C(=O)O)CCC1 [Compound 35]
[1]; [5]
  IC50: < 800 nM

## COc1cc(-c2ccccc2F)ccc1NC(=O)C1=C(C(=O)O)CCC1 [Compound 36]
[1]; [5]
  IC50: < 800 nM

## COc1ccc(-c2ccc(NC(=O)C3=C(C(=O)O)CCC3)c(OC)c2)c(OC)c1 [Compound 37]
[1]; [5]
  IC50: < 800 nM

## CCOc1cccc(-c2ccc(NC(=O)C3=C(C(=O)O)CCC3)c(OC)c2)c1 [Compound 38]
[1]; [5]
  IC50: < 800 nM

## COc1cccc(-c2ccc(NC(=O)C3=C(C(=O)O)CCC3)c(OC)c2)c1 [Compound 39]
[1]; [5]
  IC50: < 800 nM

## O=C(O)C1=C(C(=O)Nc2ccc(-c3ccccc3Cl)cc2)CSC1 [Compound 41]
[1]; [5]
  IC50: < 800 nM
[3]; [6]
  IC50: > 1500 nM

## Cc1cccc(Sc2ccc(NC(=O)C3=C(C(=O)O)CCC3)cc2)c1 [Compound 42]
[1]; [5]
  IC50: < 800 nM
[3]; [6]
  IC50: < 800 nM

## O=C(O)C1=C(C(=O)Nc2ccc(-c3cccc(OC(F)(F)F)c3)cc2)CCC1 [Compound 43]
[1]; [5]
  IC50: < 800 nM

## O=C(O)C1=C(C(=O)Nc2ccc(-c3cc4ccccc4s3)cc2)CCC1 [Compound 44]
[1]; [5]
  IC50: < 800 nM

## O=C(O)C1=C(C(=O)Nc2ccc(-c3cc4ccccc4s3)cc2F)CCC1 [Compound 45]
[1]; [5]
  IC50: < 800 nM

## CCOc1cccc(-c2ccc(NC(=O)C3=C(C(=O)O)CCC3)c(F)c2)c1 [Compound 46]
[1]; [5]
  IC50: < 800 nM
[3]; [6]
  IC50: > 1500 nM

## COc1cc(-c2ccc(NC(=O)C3=C(C(=O)O)CCC3)c(OC)c2)ccc1NC(=O)C1=C(C(=O)O)CCC1 [Compound 48]
[1]; [5]
  IC50: > 1500 nM

## O=C(O)C1=C(C(=O)Nc2ccc(-c3ccccc3)cc2)CS(=O)(=O)C1 [Compound 49]
[1]; [5]
  IC50: > 1500 nM

## O=C(O)C1=C(C(=O)Nc2ccc(Oc3ccccc3)cc2)CCC1 [Compound 50]
[1]; [5]
  IC50: < 800 nM
[3]; [6]
  IC50: < 800 nM

## O=C(O)C1=C(C(=O)Nc2ccc(Oc3ccccc3)cc2)COC1 [Compound 51]
[1]; [5]
  IC50: > 1500 nM

## COc1ccccc1-c1ccc(NC(=O)C2=C(C(=O)O)CCC2)c(Cl)c1 [Compound 53]
[1]; [5]
  IC50: < 800 nM
[3]; [6]
  IC50: 800 to 1500 nM

## COc1ccccc1-c1ccc(NC(=O)C2=C(C(=O)O)CCC2)cc1Cl [Compound 54]
[1]; [5]
  IC50: < 800 nM
[3]; [6]
  IC50: < 800 nM

## COc1ccccc1-c1ccc(NC(=O)C2=C(C(=O)O)CCC2)c(C(F)(F)F)c1 [Compound 55]
[1]; [5]
  IC50: > 1500 nM

## COc1ccccc1-c1c(F)c(F)c(NC(=O)C2=C(C(=O)O)CCC2)c(F)c1F [Compound 56]
[1]
  IC50: < 800 nM
[3]
  IC50: < 800 nM

## COc1ccccc1-c1ccc(NC(=O)C2=C(C(=O)O)CCC2)c(C)c1 [Compound 57]
[1]; [5]
  IC50: < 800 nM
[3]; [6]
  IC50: 800 to 1500 nM

## COc1ccccc1-c1cc(Cl)c(NC(=O)C2=C(C(=O)O)CCC2)c(Cl)c1 [Compound 58]
[1]; [5]
  IC50: < 800 nM
[3]; [6]
  IC50: 800 to 1500 nM

## COc1ccc(Oc2ccc(C(F)(F)F)cc2NC(=O)C2=C(C(=O)O)CCC2)cc1 [Compound 59]
[1]; [5]
  IC50: > 1500 nM

## O=C(O)C1=C(C(=O)Nc2ccc(Oc3ccc(F)cc3F)cc2)CCC1 [Compound 60]
[1]; [5]
  IC50: 800 to 1500 nM

## O=C(O)C1=C(C(=O)Nc2ccc(Oc3ccc(Cl)cc3)cc2)CCC1 [Compound 61]
[1]; [5]
  IC50: > 1500 nM

## CCOc1ccccc1-c1cc(F)c(NC(=O)C2=C(C(=O)O)CCC2)c(F)c1 [Compound 62]
[1]; [5]
  IC50: < 800 nM
[3]; [6]
  IC50: < 800 nM

## CCOc1cccc(-c2cc(F)c(NC(=O)C3=C(C(=O)O)CCC3)c(F)c2)c1 [Compound 63]
[1]; [5]
  IC50: < 800 nM
[3]; [6]
  IC50: < 800 nM

## O=C(O)C1=C(C(=O)Nc2c(F)cc(-c3cccc(OC(F)(F)F)c3)cc2F)CCC1 [Compound 64]
[1]; [5]
  IC50: < 800 nM

## O=C(O)C1=C(C(=O)Nc2c(F)cc(-c3ccccc3Cl)cc2F)CCC1 [Compound 65]
[1]; [5]
  IC50: < 800 nM

## O=C(O)C1=C(C(=O)Nc2c(F)cc(-c3ccccc3F)cc2F)CCC1 [Compound 66]
[1]; [5]
  IC50: < 800 nM

## COc1ccc(-c2cc(F)c(NC(=O)C3=C(C(=O)O)CCC3)c(F)c2)c(OC)c1 [Compound 67]
[1]; [5]
  IC50: < 800 nM

## O=C(O)C1=C(C(=O)Nc2ccc(OCc3ccccc3C(F)(F)F)c(Cl)c2)CCC1 [Compound 68]
[1]; [5]
  IC50: < 800 nM
[3]; [6]
  IC50: > 1500 nM

## O=C(O)C1=C(C(=O)NCCCCc2ccccc2)CCC1 [Compound 70]
[1]; [5]
  IC50: > 1500 nM

## O=C(O)C1=C(C(=O)NC2CC2c2ccccc2)CCC1 (centres unmarked) [Compound 71]
[1]; [5]
  IC50: > 1500 nM

## O=C(O)C1=C(C(=O)Nc2ccc(OCc3ccccc3)c(Cl)c2)CCC1 [Compound 72]
[1]; [5]
  IC50: < 800 nM

## CN(C(=O)C1=C(C(=O)O)CCC1)c1ccc(-c2ccccc2)cc1 [Compound 73]
[1]; [5]
  IC50: > 1500 nM

## O=C(O)C1=C(C(=O)Nc2ccc(OCc3ccccc3F)c(Cl)c2)CCC1 [Compound 74]
[1]; [5]
  IC50: < 800 nM

## O=C(O)C1=C(C(=O)Oc2ccc(-c3ccccc3)cc2)CCC1 [Compound 75]
[1]; [5]
  IC50: > 1500 nM

## COc1ccccc1-c1ccc(OC(=O)C2=C(C(=O)O)CCC2)c(F)c1 [Compound 76]
[1]; [5]
  IC50: < 800 nM
[2]; class symbols (in nM)
  IC50: 800 to 1500 nM
[3]; [6]
  IC50: < 800 nM
